Experimental data taken from patent US7683055B2, “Lanthionine-related compounds for the treatment of inflammatory diseases” (Oklahoma Medical Research Foundation, priority 2006, dated 2010).

What was measured:
[1] = tested on: mice treated with E. coli LPS 0127:B8; assay: LPS sepsis mouse model, viability; assay type: in vivo; conditions: for Dead/alive: 40 mg/kg LPS + 100 mg/kg i.p. daily
Experimental: Six mice were treated with 40 mg/kg E. coli LPS 0127:B8 and co-treated with 100 mg/kg (R)-LKE1 i.p., daily. Viability was compared to a control group, receiving only LPS.

[2] = tested on: SHSY5Y dopaminergic neuroblastoma cells; assay: rotenone toxicity in SHSY5Y cells; assay type: cell-based; conditions: 30 min pretreatment
Experimental: FIG. 15. (R)-LKE1 protects SHSY5Y dopaminergic neuroblastoma cells against rotenone toxicity. In this experiment SHSY5Y cultures were treated with (R)-LKE1 for 30 min. prior to addition of rotenone, then assayed for viability at various later time points. The percent change in 24 hour cell viability was measured in the presence and absence of (R)-LKE1 at difference rotenone concentrations. “LKE” refers to (R)-LKE1.
For example, the methods and compounds of present invention are expected to by useful for treating Parkinson's disease in an individual. […] In this experiment SHSY5Y cultures were treated with (R)-LKE1 for 30 min. prior to addition of rotenone, then assayed for viability at various later time points.

[3] = tested on: C6 glioma cells; assay: C6 glioma cells implanted in rat neocortex; assay type: in vivo, Sprague-Dawley rats; conditions: 100 mg/day, 7 days/week from implantation
Experimental: FIG. 16. […] 100,000 C6 glioma cells were implanted in the neocortex of adult male Sprague-Dawley rats. The test group was administered (R)-LKE1 in saline 100 mg/day at each of 7 days/week starting the day of implantation.

[4] = tested on: EOC-20 microglial cells; assay: PGE2 production in TNFα+IFNγ-stimulated EOC-20 microglial cells; assay type: cell-based, mouse; conditions: stimulated by TNFα+IFNγ
[5] = tested on: EOC-20 microglial cells; assay: LPS-stimulated nitrite production in EOC-20 microglia; assay type: cell-based, mouse
Experimental: In some embodiments, the compounds of the invention function is a cell-type specific, stimulus-specific, or condition-specific fashion. […] In contrast, when EOC-20 cells or RAW264.7 macrophages were stimulated with bacterial lipopolysaccharide (LPS; E. coli serotype 0127:B8) for 24-48 h and nitrite and cell viability were assessed. LKE inhibited cytokine-induced nitrite accumulation with a similar efficacy in both cell types (see FIGS. 9A & 9B).
Mouse EOC-20 microglia (American Tissue Type Collection, Gaithersville Md. USA) (Hensley et al., 2003; Walker et al., 1995) were grown in DMEM containing 20% L929 fibroblast-supplemented medium. Nitrite production by cytokine stimulated microglia was measured in cell culture medium using the Griess diazotization reaction as previously reported (Hensley et al., 2003; West et al., 2004).

[6] = tested on: NSC-34 cells; assay: NSC-34 viability in cytokine-conditioned EOC-20 microglial medium (tetrazolium reduction); assay type: cell-based, mouse
Experimental: In the second cytotoxicity paradigm, the inventor has also shown that the compounds and methods of this invention diminish the toxicity of microglia-conditioned medium toward NSC-34 cells. NSC-34 cells were treated with conditioned medium taken from EOC-20 cells that had been stimulated for 24 h with 50 U/mL IFNγ plus […] TNFα. This cytokine-conditioned EOC-20 medium is toxic to NSC-34 cells, whereas the same cytokine mixture added directly to NSC-34 cells is not toxic (data not shown). Medium from unstimulated EOC-20 cells is likewise nontoxic (data not shown). The toxic factor in the cytokine-stimulated EOC-20 cell conditioned medium was not identified. […] The concentration of (R)-LKE1 necessary to achieve half-maximal protective efficacy in this case was less than 1 μM (FIG. 3).
(R)-LKE1 protects NSC-34 motoneuron hybridoma cells from microglial-derived neurotoxic products (FIG. 3). EOC-20 microglia were stimulated with 50 U/mL IFNγ plus 20ng/mL TNFα for 24 hours, and cytokine-conditioned medium (CM) was collected. NSC-34 cells (2 days post-passage) were treated with the indicated concentration of (R)-LKE1 for 2.5 hours after which 50% of the medium was replaced with CM. […] After 48 hours, viability of NSC-34 cultures was assessed by tetrazolium reduction assay using a commercially available kit (Promega Aqueous OneStep®).

Structure (SMILES): CCOC(=O)[C@@H]1CSCC(C(=O)O)=N1 [(R)-LKE1]
- Dead/alive ([1]; 0 h): 0/6
- Dead/alive ([1]; 18 h): 2/4
- Dead/alive ([1]; 36 h): 3/3
- Dead/alive ([1]; 48 h): 4/2
- Dead/alive ([1]; 72 h): 4/2
- chance of surviving the LPS model conditions ([1]; co-treated): higher chance of surviving
- protection from rotenone toxicity [2]: protecting SHSY5Y cells from rotenone toxicity
- tumor cell proliferation [3]: inhibits tumor cell proliferation
- suppression of PGE2 production [4]: does not to suppress prostaglandin E2 (PGE2) production
- cytotoxicity (cell viability) ([5]; EOC-20 cells or RAW264.7 macrophages, LPS 24-48 h): No cytotoxicity was observed
- inhibition of LPS-stimulated nitric oxide production ([5]; EOC-20 microglial cells, LPS): inhibited LPS stimulated nitric oxide production
- EC50 ([6]; Mus musculus, NSC-34, cytokine-conditioned EOC-20 medium, read-out: concentration necessary to achieve half-maximal protective efficacy): < 1000 nM
- mitigation of conditioned-medium toxicity ([6]; co-treatment with conditioned medium): largely, but not completely mitigated
